From patent US8895744B2, “Alfa-carboline inhibitors of NPM-ALK, RET, and Bcr-Abl” (Universita' Degli Studi di Milano-Bicocca, priority 2008, dated 2014)
Read-outs that look alike come from different tables or passages of the source.

How the values were obtained:
Recombinant ALK kinase = target: T1, Recombinant ALK kinase (Homo sapiens, UniProt Q9UM73); experiment: ALK kinase inhibitory activity, ELISA-based in vitro kinase assay; assay type: biochemical
T1 construct: made in house; host or cells: Sf9 insect cells (baculovirus)
T1 sequence (Q9UM73 19-1620): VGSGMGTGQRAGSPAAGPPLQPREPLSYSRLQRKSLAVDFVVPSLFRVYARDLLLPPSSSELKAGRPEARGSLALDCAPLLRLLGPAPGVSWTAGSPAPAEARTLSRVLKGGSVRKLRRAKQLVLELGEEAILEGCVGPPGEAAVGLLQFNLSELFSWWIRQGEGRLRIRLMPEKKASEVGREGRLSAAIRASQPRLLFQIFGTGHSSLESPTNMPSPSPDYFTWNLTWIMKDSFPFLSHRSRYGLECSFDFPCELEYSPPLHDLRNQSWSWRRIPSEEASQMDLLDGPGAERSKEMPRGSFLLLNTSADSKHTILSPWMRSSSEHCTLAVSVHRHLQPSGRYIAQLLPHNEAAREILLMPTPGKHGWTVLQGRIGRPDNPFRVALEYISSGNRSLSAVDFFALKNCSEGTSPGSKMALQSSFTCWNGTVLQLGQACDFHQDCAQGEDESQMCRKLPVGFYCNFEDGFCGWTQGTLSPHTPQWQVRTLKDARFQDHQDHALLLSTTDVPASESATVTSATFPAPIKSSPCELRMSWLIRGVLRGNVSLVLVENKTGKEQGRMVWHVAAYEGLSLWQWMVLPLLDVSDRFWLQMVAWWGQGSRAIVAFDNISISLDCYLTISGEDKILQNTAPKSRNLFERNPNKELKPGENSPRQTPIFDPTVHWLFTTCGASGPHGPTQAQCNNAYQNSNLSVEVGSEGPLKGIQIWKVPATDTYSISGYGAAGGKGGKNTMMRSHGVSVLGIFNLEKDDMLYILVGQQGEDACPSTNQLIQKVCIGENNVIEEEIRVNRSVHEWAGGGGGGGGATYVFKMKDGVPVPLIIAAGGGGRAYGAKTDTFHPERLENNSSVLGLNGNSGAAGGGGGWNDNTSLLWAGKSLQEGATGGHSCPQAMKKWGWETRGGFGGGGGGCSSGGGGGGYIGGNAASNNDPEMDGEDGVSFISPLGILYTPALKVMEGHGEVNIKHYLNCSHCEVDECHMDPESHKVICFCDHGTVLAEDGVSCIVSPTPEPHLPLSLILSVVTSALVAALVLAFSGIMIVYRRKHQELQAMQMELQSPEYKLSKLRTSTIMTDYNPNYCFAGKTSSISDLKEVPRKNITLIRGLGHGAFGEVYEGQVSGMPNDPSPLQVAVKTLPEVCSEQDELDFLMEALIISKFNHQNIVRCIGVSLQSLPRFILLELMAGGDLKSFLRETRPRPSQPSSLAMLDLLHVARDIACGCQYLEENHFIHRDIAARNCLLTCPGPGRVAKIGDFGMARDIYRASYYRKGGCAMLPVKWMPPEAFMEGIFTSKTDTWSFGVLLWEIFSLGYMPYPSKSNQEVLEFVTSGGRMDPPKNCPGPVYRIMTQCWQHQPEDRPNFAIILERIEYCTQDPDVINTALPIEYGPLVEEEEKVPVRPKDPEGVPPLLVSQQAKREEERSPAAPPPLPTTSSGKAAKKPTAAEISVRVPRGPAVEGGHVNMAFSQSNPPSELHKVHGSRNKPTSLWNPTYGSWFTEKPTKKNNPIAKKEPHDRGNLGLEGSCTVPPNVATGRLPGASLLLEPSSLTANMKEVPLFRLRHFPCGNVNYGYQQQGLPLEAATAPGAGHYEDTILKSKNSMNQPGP
How it was run: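 Sf9-expressed, purified recombinant ALK phosphorylated a plate-coated peptide substrate with 0.3 mM ATP, Mn2+/Mg2+, pH 7.5, 15 min at 30° C, after 10 min inhibitor preincubation. Phosphotyrosine was detected by anti-pTyr ELISA (TMB, A450); IC50 in μM is the concentration giving 50% inhibition relative to control.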

[1] = system: parent untransformed BaF3 cells; experiment: Tritiated thymidine uptake cell proliferation assay, parental BaF3 (control); assay type: cell-based; conditions: Mus musculus, 3[H]-thymidine uptake, 72 h, medium with IL-3, read-out: BaF parental IC50
How it was run: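 Control lines were parental BaF3 in IL-3-supplemented medium and ALK-, Abl- or RET-negative U937, seeded at 10 000 cells/well with serial inhibitor dilutions for 72 h at 37 °C. ³H-thymidine (1 μCi/well) was added for the final 16 h; IC50 (μM) is the concentration halving uptake versus DMSO.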

[2] = target: T2, Recombinant Abl T315I protein (Homo sapiens, UniProt P00519, T315I); experiment: Abl T315I mutant kinase inhibitory activity, ELISA-based in vitro kinase assay; assay type: biochemical; conditions: purified Abl T315I, 0.3 mM ATP
T2 construct: made in house; host or cells: Sf9 cells (baculovirus)
How it was run: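 His-tagged human Abl T315I from Sf9 cells, preincubated 10 min at room temperature with inhibitor, then reacted on peptide-coated plates with 0.3 mM ATP, 1 mM MnCl2, 5 mM MgCl2 in 50 mM Tris pH 7.5. Phosphotyrosine detected by anti-pTyr/HRP ELISA at 450 nm; IC50 as 50% inhibition vs control.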

Recombinant Ret protein = target: T3, Recombinant Ret protein (Homo sapiens, UniProt P07949); experiment: RET kinase inhibitory activity, ELISA-based in vitro kinase assay; assay type: biochemical; conditions: purified Ret, 0.3 mM ATP
T3 construct: made in house; host or cells: Sf9 cells (baculovirus)
T3 sequence (P07949 29-1114): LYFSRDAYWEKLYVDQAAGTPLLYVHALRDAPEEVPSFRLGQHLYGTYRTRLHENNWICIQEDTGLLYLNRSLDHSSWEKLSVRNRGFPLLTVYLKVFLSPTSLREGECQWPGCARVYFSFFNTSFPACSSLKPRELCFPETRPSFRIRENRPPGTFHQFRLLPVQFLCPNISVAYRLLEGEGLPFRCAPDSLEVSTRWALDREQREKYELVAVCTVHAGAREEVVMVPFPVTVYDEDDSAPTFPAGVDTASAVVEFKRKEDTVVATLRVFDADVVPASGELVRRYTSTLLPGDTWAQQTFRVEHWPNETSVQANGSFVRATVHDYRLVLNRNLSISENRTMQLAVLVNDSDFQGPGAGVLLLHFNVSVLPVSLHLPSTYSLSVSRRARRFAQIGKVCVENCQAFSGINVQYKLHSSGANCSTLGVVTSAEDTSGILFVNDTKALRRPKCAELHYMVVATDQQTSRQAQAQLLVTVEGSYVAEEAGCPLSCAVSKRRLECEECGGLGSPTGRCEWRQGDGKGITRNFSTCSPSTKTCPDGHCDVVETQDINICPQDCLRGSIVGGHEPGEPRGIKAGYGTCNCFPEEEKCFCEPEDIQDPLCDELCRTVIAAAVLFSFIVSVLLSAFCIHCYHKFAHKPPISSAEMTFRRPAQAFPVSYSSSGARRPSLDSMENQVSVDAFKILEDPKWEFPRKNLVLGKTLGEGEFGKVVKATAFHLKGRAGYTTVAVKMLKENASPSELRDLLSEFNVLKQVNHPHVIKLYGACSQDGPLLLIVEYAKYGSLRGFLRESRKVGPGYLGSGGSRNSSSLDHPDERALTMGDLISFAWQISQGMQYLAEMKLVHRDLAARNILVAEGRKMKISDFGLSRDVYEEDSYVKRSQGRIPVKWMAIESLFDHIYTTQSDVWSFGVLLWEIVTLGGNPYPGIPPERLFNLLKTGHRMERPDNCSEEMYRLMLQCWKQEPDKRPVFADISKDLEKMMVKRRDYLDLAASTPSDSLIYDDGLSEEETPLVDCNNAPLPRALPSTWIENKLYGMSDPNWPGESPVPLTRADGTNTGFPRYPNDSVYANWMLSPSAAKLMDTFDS
Description: Recombinant ALK kinase was expressed in Sf9 insect cells using the pBlueBacHis2C baculovirus vector system and purified using an anion exchange Fast Flow Q-sepharose column (Amersham-Pharmacia Biotech) followed by HiTrap™-nickel affinity column (Amersham-Pharmacia Biotech). Purified ALK protein was used to screen inhibitors in the ELISA-based kinase assay. A Nunc Immuno 96 well plate was incubated overnight at 37° C. with coating solution (125 μL/well) containing ALK peptide substrate ([…]) (SEQ ID NO: 1) at various concentrations in PBS. Wells were then washed with 200 μL of wash buffer (PBS-Tween 0.05%) and left to dry for at least 2 h at 37° C. The kinase reaction was performed in the presence of 50 mM Tris pH 7.5, 5 mM MnCl2, 5 mM MgCl2, 0.3 mM ATP and purified rALK in a total volume of 100 μL/well at 30° C. for 15 min. For inhibitor testing the reaction mix was preincubated with the inhibitor or solvent control for 10 min at room temperature before transferring to the ELISA plate. After the reaction wells were washed 5 times with 200 μL of wash buffer. Phosphorylated peptide was detected using 100 μL/well of a mouse monoclonal anti-phosphotyrosine antibody (clone 4G10 Upstate Biotech Ltd) diluted 1:2000 in PBS+4% BSA. After 30 min incubation at room temperature the antibody was removed and wells were washed as described above. 100 μL of a secondary antibody (anti-mouse IgG, Horseradish Peroxidase linked whole antibody, Amersham Pharmacia Biotech) diluted 1:1000 in PBS+4% BSA was added to each well and the plate was incubated again for 30 min at room temperature before washing as above. The plate was developed using 100 μL/well TMB Substrate Solution (Endogen) and the reaction was stopped by adding an equiv.ual volume of H2SO4 0.36 M. Finally, the absorbance was read at 450 nm using an Ultrospec® 300 spectrophotometer (Amersham-Pharmacia Biotech). The concentration of the test solution showing 50% inhibition as compared with the control was expressed as IC50 (μM).
38. RET Kinase Inhibitory Activity
Method: ELISA-Based In Vitro Kinase Assay
Recombinant Ret protein was expressed in Sf9 cells using the pBlueBacHis2C baculovirus expression vector. Ret was purified using an anion exchange Fast Flow Q-sepharose column (Amersham-Pharmacia Biotech) followed by HiTrap™-nickel affinity column (Amersham-Pharmacia Biotech). Purified Ret was used in the ELISA-based kinase assay to screen inhibitors as described above. The kinase reaction was performed in the presence of 50 mM Tris pH 7.5, 1 mM MnCl2, 5 mM MgCl2, 0.3 mM ATP, peptide substrate ([…]) (SEQ ID NO: 1) and purified Ret. The concentration of the test solution showing 50% inhibition as compared with the control was expressed as IC50 (μM).

[3] = system: NPM/ALK positive SUDHL-1 cells; experiment: Tritiated thymidine uptake cell proliferation assay, SUDHL-1; assay type: cell-based; conditions: 3[H]-thymidine uptake, 72 h
Description: Inhibition of the proliferation of NPM/ALK positive cells
(§1) Method: Tritiated Thymidine Uptake Cell Proliferation Assay
(§2) The following procedure was used with parent untransformed BaF3 cells, BaF3 cells transformed with the oncogenic fusion protein NPM/ALK, NPM/ALK positive SUDHL-1 cells, ALK-negative U937 cells, NPM/ALK positive KARPAS-299 cells. The parent untransformed BaF3 cells and Alk-negative U937 cells are used as controls. Cells were seeded in U-bottomed 96-well plates at 10 000 cells/well in a volume of 100 μL in supplemented medium. In the case of the parent untransformed BaF3 cells, the medium was supplemented with IL-3. Serial dilutions of inhibitors were added to the appropriate wells and volumes adjusted to 200 μL. Controls were treated with the equivalent volume of vehicle, DMSO, alone. Plates were incubated at 37° C. for 72 h. ^3[H]-thymidine (1 μCi/well) was added for the last 16 h of incubation. Cells were harvested on to paper filters and ^3[H]-thymidine incorporation was measured using a β scintillation counter (1430 MicroBeta, Wallac, Turku, Finland). The 50% inhibitory concentration (IC50) was defined as the concentration of inhibitor, expressed in micromolar, that gave a 50% decrease in ^3[H]-thymidine uptake compared with controls.

[4] = target: T4, BaF3 cells transformed with the oncogenic fusion protein NPM/ALK (Homo sapiens, UniProt Q9UM73); experiment: Tritiated thymidine uptake cell proliferation assay, BaF3 NPM/ALK; assay type: cell-based; conditions: 3[H]-thymidine uptake, 72 h; read-out: BaF NPM/ALK IC50
T4 construct: fused on or other part: P06748 (Nucleophosmin)
T4 sequence (Q9UM73 whole entry, change not shown, the tested form may be a part): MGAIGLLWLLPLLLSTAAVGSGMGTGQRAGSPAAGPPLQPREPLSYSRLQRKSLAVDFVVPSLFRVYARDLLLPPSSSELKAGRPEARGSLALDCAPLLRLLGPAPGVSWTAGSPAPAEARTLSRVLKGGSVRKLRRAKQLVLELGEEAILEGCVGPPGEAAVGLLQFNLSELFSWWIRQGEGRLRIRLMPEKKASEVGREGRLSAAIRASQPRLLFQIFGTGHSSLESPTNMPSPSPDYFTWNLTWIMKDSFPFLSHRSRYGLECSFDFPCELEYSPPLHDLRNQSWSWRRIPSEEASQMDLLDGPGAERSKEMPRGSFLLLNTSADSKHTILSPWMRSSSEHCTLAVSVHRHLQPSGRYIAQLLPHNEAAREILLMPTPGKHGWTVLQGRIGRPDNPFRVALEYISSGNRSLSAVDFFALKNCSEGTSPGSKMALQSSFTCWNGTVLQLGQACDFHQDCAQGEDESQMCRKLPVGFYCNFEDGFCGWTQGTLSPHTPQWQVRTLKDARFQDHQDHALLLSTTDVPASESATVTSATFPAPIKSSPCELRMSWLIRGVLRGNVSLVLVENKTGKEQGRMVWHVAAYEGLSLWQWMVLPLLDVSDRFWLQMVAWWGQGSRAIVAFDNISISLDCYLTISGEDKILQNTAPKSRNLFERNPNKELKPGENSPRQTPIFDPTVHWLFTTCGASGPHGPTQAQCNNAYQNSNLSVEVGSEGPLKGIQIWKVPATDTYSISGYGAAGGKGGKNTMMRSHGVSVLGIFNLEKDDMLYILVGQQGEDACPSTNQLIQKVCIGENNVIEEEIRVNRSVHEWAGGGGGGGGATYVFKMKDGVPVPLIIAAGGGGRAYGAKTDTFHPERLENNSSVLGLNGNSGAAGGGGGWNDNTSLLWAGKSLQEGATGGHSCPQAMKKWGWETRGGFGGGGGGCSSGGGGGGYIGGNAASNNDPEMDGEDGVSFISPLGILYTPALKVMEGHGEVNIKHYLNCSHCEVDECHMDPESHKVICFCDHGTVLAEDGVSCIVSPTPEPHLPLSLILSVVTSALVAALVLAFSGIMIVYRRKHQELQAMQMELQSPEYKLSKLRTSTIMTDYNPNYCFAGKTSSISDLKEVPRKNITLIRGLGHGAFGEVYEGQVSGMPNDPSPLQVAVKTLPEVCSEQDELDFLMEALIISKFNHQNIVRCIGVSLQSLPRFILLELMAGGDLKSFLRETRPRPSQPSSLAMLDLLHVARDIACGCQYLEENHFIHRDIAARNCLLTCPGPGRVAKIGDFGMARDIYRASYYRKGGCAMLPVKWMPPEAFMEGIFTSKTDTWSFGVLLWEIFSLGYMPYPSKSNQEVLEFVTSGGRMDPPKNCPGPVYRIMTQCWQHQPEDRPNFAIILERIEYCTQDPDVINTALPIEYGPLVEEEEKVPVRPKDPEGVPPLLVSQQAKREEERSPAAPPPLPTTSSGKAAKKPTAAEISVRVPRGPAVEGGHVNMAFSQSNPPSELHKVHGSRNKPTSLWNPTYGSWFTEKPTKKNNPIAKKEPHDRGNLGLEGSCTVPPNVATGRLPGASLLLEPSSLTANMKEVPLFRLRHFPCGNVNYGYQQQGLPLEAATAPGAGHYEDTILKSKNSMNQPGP
How it was run: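 Cells were seeded at 10 000/well with serial inhibitor dilutions or DMSO vehicle and incubated 72 h at 37 °C, with ^3[H]-thymidine (1 μCi/well) added for the final 16 h. Incorporation was read by β scintillation counting. IC50 (μM) is the concentration giving a 50% decrease in uptake versus controls.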

ALK-negative U937 cells = experiment: Tritiated thymidine uptake cell proliferation assay, U937 (control); assay type: cell-based; conditions: Homo sapiens, U-937; 3[H]-thymidine uptake, 72 h
Description: as §1
as §2, with “with controls. […]” for “with controls.”
as §2, with “RET-PTC2, or RET-negative 11937” for “NPM/ALK, NPM/ALK positive SUDHL-1 cells, ALK-negative U937 cells, NPM/ALK positive KARPAS-299”, “RET-negative” for “Alk-negative”

[5] = purified rALK, 0.3 mM ATP, read-out: ALK IC50

| Structure (SMILES) | IC50 (Recombinant ALK kinase; [5]) [µM] | IC50 [1] [µM] | IC50 [2] [µM] | IC50 (Recombinant Ret protein) [nM] | IC50 [3] [µM] | GI50 [4] [µM] | melting point [°C] | IC50 (ALK-negative U937 cells) [µM] | IC50 (Recombinant ALK kinase; repeated determinations, 1st, read-out: ALK IC50, 1st determination) [µM] | IC50 (Recombinant ALK kinase; repeated determinations, 2nd or 'then', read-out: ALK IC50, 2nd / subsequent determination) [µM] | ALK IC50, 3rd determination (Recombinant ALK kinase; repeated determinations, 3rd) |
| --- | --- | --- | --- | --- | --- | --- | --- | --- | --- | --- | --- |
| O=C(CSc1ccccc1)c1ccc2[nH]c3ncc(Cl)cc3c2c1 [R275, 1-(3-Chloro-9H-pyrido[2,3-b]indol-6-yl)-2-phenylsulfanylethanone] | 20 ± 0.6 | 2 | > 100 | 27000 | > 25 | 8 | – | – | – | – | – |
| COc1ccc(-c2cnc3[nH]c4ccccc4c3c2)cc1 [R278, 3-(4-methoxyphenyl)-9H-pyrido[2,3-b]indole] | 1.2 ± 0.2 | > 50 | 23 | 1000 | – | > 50 | > 220 | – | – | – | – |
| C(=C\c1cnc2[nH]c3ccccc3c2c1)/c1ccccc1 [R281, 3-(2′-phenylethenyl)-9H-pyrido[2,3-b]indole] | 0.5 ± 0.3 | > 100 | 1.8 | 1100 | > 100 | > 100 | – | – | – | – | – |
| COc1ccc(-c2ccc3c(n2)[nH]c2ccccc23)cc1 [R299, 2-(4-methoxyphenyl)-9H-pyrido[2,3-b]indole] | 2.1 ± 0.5 | > 100 | > 100 | 4100 | 59 | > 100 | – | – | – | – | – |
| O=[N+]([O-])c1ccccc1Nc1ccnc2[nH]c3ccccc3c12 [R323, N-(2-nitrophenyl)-9H-pyrido[2,3-b]indol-4-amine] | 23 ± 12 | > 100 | – | – | > 100 | 0.21 ± 0.01 | – | 13 | – | – | – |
| O=[N+]([O-])c1ccccc1Nc1ccc2c(n1)[nH]c1ccc(/C=C/c3ccccc3)cc12 [R332, N-(2-nitrophenyl)-6-(2′-phenylethenyl)-9H-pyrido[2,3-b]indol-2-amine] | 13 ± 2 | 20 ± 1 | – | – | 3.6 | 3 ± 0.8 | – | 1.9 | – | – | – |
| CCN(CC)CCCOc1ccc(-c2ccc3[nH]c4ncc(Cl)cc4c3c2)cc1 [R337, 3-(4-(3-chloro-9H-pyrido[2,3-b]indol-6-yl)phenoxy)-N,N-diethylpropan-1-amine] | 31 ± 9 | 2.6 | – | – | 2.4 | 2.5 | – | 1.1 | – | – | – |
| CCN(CC)CCCOc1ccc(-c2ccc3[nH]c4ncc(/C=C/c5ccccc5)cc4c3c2)cc1 [R338, N,N-diethyl-3-(4-(3-(2′-phenylethenyl)-9H-pyrido[2,3-b]indol-6-yl)phenoxy)propan-1-amine] | – | 0.4 | – | – | 0.4 | 0.5 | – | 0.4 | – | – | – |
| CCN(CC)CCCOc1ccc(-c2ccc3[nH]c4ncc(C=Cc5ccccc5)cc4c3c2)cc1 [R340] | 7 ± 1.5 | 1 | – | – | 0.7 | 1.2 | – | 0.5 | – | – | – |
| CCCC#Cc1ccc2c(n1)[nH]c1ccccc12 [R341, 2-(pent-1-ynyl)-9H-pyrido[2,3-b]indole] | 11 ± 0.1 | 70 | – | – | 48 | 74 | – | 17 | – | – | – |
| C(#Cc1ccc2c(n1)[nH]c1ccccc12)c1ccccc1 [R342, 2-(phenylethynyl)-9H-pyrido[2,3-b]indole] | – | > 100 | – | – | 21 | > 180 | – | 33 | – | – | – |
| CN1CCN(CCOc2ccc(-c3ccc4[nH]c5ncc(Cl)cc5c4c3)cc2)CC1 [R347, 3-chloro-6-(4-(2-(4-methylpiperazin-1-yl)ethoxy)phenyl)-9H-pyrido[2,3-b]indole] | 7.8 ± 0.9 | 2.4 | – | – | 2.6 | 2.5 | – | 4.6 | – | – | – |
| COc1ccc(/C=C/c2ccc3[nH]c4ncc(Cl)cc4c3c2)cc1 [R350, (E)-3-chloro-6-(2′-(4-methoxyphenyl)ethenyl)-9H-pyrido[2,3-b]indole] | – | > 100 | – | – | > 100 | > 100 | – | > 100 | 5.1 | 35 | inactive |
